For one assay, the system named is NF-κB. Description: NF-κB luciferase reporter assay in HL-60 cells. The assay is classed as cell-based, Human. To be noted: positive control, concentration not given. The procedure:
We examined the effect of anthocyanidins on NF-κB activation using a luciferase reporter assay in HL-60 cells (Human promyelocytic leukemia cells). HL-60 cells in IMDM medium were transfected with a reporter vector with an NF-kB consensus sequence located in the luciferase promoter for 24 h at 37° C., then were incubated with delphinidin-rich anthocyanidins diluted 1:500000, 1:50000, and 1:5000. PMA was used as positive control. Luciferase activity was measured with a Dual luciferase assay kit (Promega) according to the supplier's instructions. A vector that constitutively expressed renilla luciferase was used to standardize the assay.
Background: In a reporter assay the amount or activity of a reporter protein is the signal.

The next assay deals with PPAR-γ. In words: PPAR-γ-Luc reporter assay in HL-60 cells. It is filed as cell-based, Human. The note with it: control substances, 12 h, concentration not given. How it is done:
We examined the effect of delphindin-rich anthocyanidins on PPAR-γ activation. HL-60 cells in IMDM medium were transfected with the reporter vectors PPAR-γ-Luc (5 μg) (Panomics) and TK-RL (1 μg) (Promega) using Fugene 6 reagent (Roche), and cultured for 24 hr. Then, the cells were incubated for 12 h in 0.175, 1.75, or 17.5 μg/ml of delphindin-rich anthocyanidins, phorbol myristate acetate (PMA), 15-deoxi-d 12,14-prostaglandin J2 (PGj2), or tumor necrosis factor alpha (TNFα) as controls. Luciferase activity was measured using the Dual-Luciferase Reporter Assay kit (DLR) from Promega in a luminometer (Luminoskan).

In assay [1] the test system is Jurkat T cells. In words: IL-2 production in Jurkat T cells (ELISA). The assay is classed as cell-based. The procedure: (§1) 2×10^6 Jurkat T cells in RPMI medium were incubated for 48 hrs at 37° C., in 5% CO2 in the presence of vehicle control solution; or the T cell activator, phorbol 12-myristate 13-acetate/lonomycin (PMA/Io 2 ng/ml 1 uM); 50 μM of delphinidin; 50 μM delphinidin+PMA/Io; 50 μM cyanidin; or 50 μM cyaniding+PMA/Io. Then the supernatants were collected and IL-2 production was analyzed by ELISA using a commercial kit (Becton Dickinson, USA) according to the supplier's directions.
Then the supernatants were collected and analyzed using commercial ELISA kit (Becton Dickinson, USA) to measure IL-2 production according to the supplier's directions.
Jurkat T cells were incubated in either a vehicle control solution; 5 nM andrographolide; 50 μM delphinidin; or 5 nM andrographolide plus 50 μM delphinidin.
(In general: In an ELISA, binding on a coated surface is turned into a signal by an enzyme label.)

The test system of assay [2] is Human T cells. Description: INF-γ production in freshly isolated human T cells (ELISA). It is filed as cell-based. The procedure: (§2) The effect of delphinidin on IL-2 and INF-γ production was also assayed on freshly isolated human T cells. Human T cells were isolated from blood of healthy volunteers using Lymphoprep reagent. T cells (1×10^6) in RMPI medium were incubated for 48 hrs at 37° C., in 5% CO2 in the presence of a vehicle control solution; 50 μM delphinidin; 50 μM delphinidin+1 μM BTP-2; 50 μM delphinidin+5 μM BTP-2; 50 μM delphinidin+10 μM BTP-2; 1 μM BTP-2; 5 μM. BTP-2; or 10 μM BTP-2. Then the supernatants were collected and analyzed using commercial ELISA kit (Becton Dickinson, USA) to measure IL-2 and INF-γ production according to the supplier's directions.

For assay [3], the system named is Jurkat T cells. In words: INF-γ production in Jurkat T cells (ELISA). It is filed as cell-based. The note with it: 48 hrs. The procedure:
as §1, with “We also explored the effect of delphinidin and cyanidin on Interferon-gamma (INF-γ) production in Jurkat T cells. 2×10^6” for “2×10^6”, “CO2. The samples were incubated” for “CO2”, “13-acetate/Ionomycin” for “13-acetate/lonomycin”, “IFN-γ” for “IL-2”

For assay [4], the system named is Jurkat T cells. In words: Calcium entry (SOCE) in Jurkat T cells after addition of CaCl2. It is filed as cell-based. The note with it: 0.9 mM CaCl2 added after 200 seconds; delphinidin 50 μM, BTP-2 10 μM. The procedure: To measure calcium entry after 200 seconds, when the levels of calcium returned to the baseline, 0.9 mM of CaCl2 was added, and the fluxes of Ca^2+ were measured as ratio of excitation ratio at 340 and 380 nm, and emission at 509 nm in a spectrofluorimeter during 150 seconds.
4×10^6 FURA 2-AM-loaded Jurkat T cells were incubated in HBSS calcium free medium. The cells were incubated in 50 uM delphinidin or 50 uM delphinidin plus 10 μM BTP-2 and the fluxes of Ca^2+ were measured as ratio of excitation at 340 and 380 nm, and emission at 509 nm, at 37° C. in a spectrofluorimeter (LS55, PerkinElmer).

Assay [5] has as its system Jurkat T cells. Description: IL-2 production in Jurkat T cells (ELISA). It is filed as cell-based. The note with it: Table 9; 48 hrs; delphinidin 50 μM, CsA.
Assay [6] relates to Jurkat T cells. Description: Ca2+ fluxes in FURA 2-AM-loaded Jurkat T cells (spectrofluorimetry, medium with CaCl2). It is filed as cell-based. How it is done:
We evaluated the effect of delphinidin on intracellular calcium release in Jurkat T cells. Extracts were prepared according to the method of Example 1. Jurkat T cells in Hanks' Balanced Salt Solution (HBSS) medium (Invitrogen) with 0.9 mM of CaCl2 were loaded with Fura-2-acetoxymethyl ester (2.5 uM FURA 2-AM) for 30 min at 37° C., washed and incubated in 10 μM, 50 μM, and 100 μM delphinidin. The fluxes of Ca^2+ were measured as ratio of excitation at 340 and 380 nm, and emission at 509 nm, for 300 seconds, at 37° C. in a spectrofluorimeter (LS55, PerkinElmer).
For orientation: Calcium flux is commonly read through the fluorescence of an indicator in the cells.

Assay [7] concerns Human T cells. Description: IL-2 production in freshly isolated human T cells (ELISA). The assay is classed as cell-based. The procedure: as §2
We evaluated the effect of a combination of delphinidin and andandrographolide on IL-2 production in both freshly harvested human T cells and the Jurkat cell line. Andrographolide was prepared according to the method described in Example 4. Human T cells were isolated from blood of healthy volunteers using Lymphoprep reagent. T cells (1×10^6) in RMPI medium were incubated for 48 hrs at 37° C., in 5% CO2 in the presence of a vehicle control solution; 5 nM andrographolide; 50 μM delphinidin; or 5 nM andrographolide plus 50 μM delphinidin. Then the supernatants were collected and analyzed using commercial ELISA kit (Becton Dickinson, USA) to measure IL-2 production according to the supplier's directions.

Assay [8] deals with Jurkat T cells. In words: Calcium release in Jurkat T cells in HBSS calcium free medium. The assay is classed as cell-based. The procedure: To measure calcium release, 4×10^6 FURA 2-AM-loaded Jurkat T cells were incubated in HBSS calcium free medium as decribed in Example 6. The cells were incubated in 50 uM delphinidin, or in 50 uM delphinidin and 10 μM N-[4-[3,5-bis(trifluoromethyl)-1H-pyrazol-1-yl]phenyl]-4-methyl-1,2,3-thiadiazole-5-carboxamide (BTP-2, a Store-Operated Calcium Entry (SOCE) inhibitor). The release of Ca^2+ was measured as ratio of excitation at 340 and 380 nm, and emission at 509 nm, for 200 seconds, at 37° C., in a spectrofluorimeter (LS55, PerkinElmer).
4×10^6 FURA 2-AM-loaded Jurkat T cells were incubated in HBSS calcium free medium. The cells were then incubated in 50 uM delphinidin and the fluxes of Ca^2+ were measured as ratio of excitation at 340 and 380 nm, and emission at 509 nm, at 37° C. in a spectrofluorimeter (LS55, PerkinElmer).
4×10^6 FURA 2-AM-loaded Jurkat T cells were incubated in HBSS calcium free medium. The cells were then treated with vehicle alone or 50 or 100 uM U73122 for 10 minutes prior to incubation in 50 uM delphinidin. Ca^2+ flux was measured as ratio of excitation at 340 and 380 nm, and emission at 509 nm, at 37° C. in a spectrofluorimeter (LS55, PerkinElmer).

Setting [9] is: Table 5, 48 hrs, delphinidin 50 μM, cyanidin 50 μM, PMA/Io 2 ng/ml 1 uM.
The mark [10] stands for this setting: Table 11, andrographolide 5 nM, delphinidin 50 μM.
The mark [11] stands for this setting: andrographolide 5 nM, delphinidin 50 μM.
[12] abbreviates: 48 hrs, 50 μM delphinidin alone.
Setting [13] is: delphinidin 50 μM, cyanidin 50 μM, PMA/Io 2 ng/ml 1 uM.
Setting [14] is: Table 10, 48 hrs, andrographolide 5 nM, delphinidin 50 μM.
Setting [15] is: calcium free medium, delphinidin 50 μM, BTP-2 10 μM.

The record followed here is patent publication US10786522B2, “Compositions that include anthocyanidins and methods of use” (Maqui NewLife S.A., priority 2009, dated 2020).

The structures appear in SMILES notation.

On to `CCCCCCCCCCCCCC(=O)O[C@@H]1[C@@H](C)[C@@]2(O)[C@@H](C=C(CO)C[C@]3(O)C(=O)C(C)=C[C@@H]23)[C@@H]2C(C)(C)[C@]12OC(C)=O` [PMA, phorbol myristate acetate], for which the “Average percentage activity of control [pNF-κB/pRL-luc]” value with NF-κB is on record as 50%. Moreover, in the assay on PPAR-γ, the “Average percentage activity of control [PPAR-γ-Luc/TK-RL] ± SD” value is reported as 527.5 ± 536.3%.
As to `Oc1cc(O)c2cc(O)c(-c3cc(O)c(O)c(O)c3)[o+]c2c1` [delphinidin, Delphinidin], the “IL-2 levels higher than untreated control cells” value in the assay with Jurkat T cells [1] (50 μM, 48 hrs) amounted to 240%. Also, the “Average IL-2 production” value in the assay with Jurkat T cells [1] (setting [9]) was 170 pg/mL; in the assay on Jurkat T cells [1] (setting [10]), 0.023 Abs 450 nm; in the assay on Jurkat T cells [5], 240 pg/mL; in the assay on Human T cells [7] (Table 7, 48 hrs, 50 μM delphinidin alone), 370 pg/mL; in the assay on Human T cells [7] (setting [14]), 87 pg/mL. Besides, the “Percentage vs. control (IL-2)” value in the assay on Jurkat T cells [1] (setting [9]) is recorded as 340%. The “Percentage compared to the control (IL-2)” value with Jurkat T cells [1] (setting [10]) is given as 139.4%; with Human T cells [7] (setting [14]), 217.5%. Moreover, the “IL-2 levels higher (Table 11)” value with Jurkat T cells [1] (setting [11]) is recorded as 39.4%. Also, the “INF-γ levels higher than untreated control cells” value was found to be 950% in the assay with Human T cells [2] (50 μM delphinidin) and 250% with Jurkat T cells [3] (50 μM). Further, the “Average INF-γ production” value in the assay with Human T cells [2] (setting [12]) worked out at 3900 pg/mL; in the assay with Jurkat T cells [3] (setting [13]), 28 pg/mL. In addition, the figures for the “Percentage vs. control (INF-γ)” value with Human T cells [2] (setting [12]) and in the assay with Jurkat T cells [3] (setting [13]) were 1054.1% and 350%, respectively. Further, in the assay on Jurkat T cells [4], the “Average AUC of ratio 340/380 150 sec. after calcium treatments (calcium entry)” value came to 70. Further, the “Percentage compared to control (calcium entry)” value in the assay on Jurkat T cells [4] turned out to be 184.2%. In addition, the “Average area under the curve of ratio 340/380 during 300 seconds” value with Jurkat T cells [6] (10 μM delphinidin) stood at 100; in the assay with Jurkat T cells [6] (50 μM delphinidin) it was 225; in the assay with Jurkat T cells [6] (100 μM delphinidin), 250. For the same molecule, the figures for the “Percentage compared to control” value with Jurkat T cells [6] (10 μM delphinidin), in the assay with Jurkat T cells [6] (50 μM delphinidin) and in the assay with Jurkat T cells [6] (100 μM delphinidin) were 166.7%, 375% and 416.7%, respectively. For the same molecule, the figures for the “area under the curve higher than untreated control cells” value in the assay with Jurkat T cells [6] (10 μM delphinidin), with Jurkat T cells [6] (50 μM delphinidin) and in the assay on Jurkat T cells [6] (100 μM delphinidin) were 66.7%, 275% and 316.7%, respectively. In the assay with Jurkat T cells [6] (10, 50, 100 μM delphinidin), the “Ca2+ fluxes, result in words” value was “induced Ca^2+ fluxes in Jurkat T cells in a dose-dependent manner”. In the assay with Human T cells [7] (setting [11]), the “IL-2 levels higher (Table 10)” value is 117%. Also, the “calcium release (FIG. 1), result in words” value in the assay with Jurkat T cells [8] (50 uM delphinidin, calcium free medium) is listed as “induced reversible calcium release”. The “Average AUC of ratio 340/380 during 200 seconds (calcium release)” value with Jurkat T cells [8] (setting [15]) stood at 51. Besides, the “Percentage compared to the control (calcium release)” value in the assay on Jurkat T cells [8] (setting [15]) is 1700%. In addition, the “AUC higher than untreated control cells (calcium release)” value with Jurkat T cells [8] (delphinidin 50 μM, BTP-2 10 uM) is on record as 1700%.
